PubChem BioAssay AID1845199 (Molecular Pharmacology Branch, DTP, NCI, 2023)
pIC50: −log10 of the molar value.

Tested on: 556581-035-R-J1 tumor spheroid viability, % test/control
Assay: Anticancer human tumor 556581-035-R-J1 patient-derived ovarian carcinoma cell line growth inhibition
Conditions: spheroids with HUVEC and MSC; for pIC50: curve of first compound; for viability, T/C: stronger effect = lower value
In short: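 Complex spheroids of malignant cells with endothelial cells and mesenchymal stem cells; agents alone or combined, from near clinical Cmax (or 10 microM if unknown) down in half-log steps, 0.25% DMSO final.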

[1] = second compound 0.003 µM, first compound 0.0316 µM
[2] = second compound 0.003 µM, first compound 0.1 µM
[3] = second compound 0.003 µM, first compound 0.316 µM
[4] = second compound 0.003 µM, first compound 1 µM
[5] = second compound 0.003 µM, first compound 3.16 µM
[6] = second compound 0.003 µM, first compound 10 µM
[7] = second compound 0.00949 µM, first compound 0.0316 µM
[8] = second compound 0.00949 µM, first compound 0.1 µM
[9] = second compound 0.00949 µM, first compound 0.316 µM
[10] = second compound 0.00949 µM, first compound 1 µM
[11] = second compound 0.00949 µM, first compound 3.16 µM
[12] = second compound 0.00949 µM, first compound 10 µM
[13] = second compound 0.03 µM, first compound 0.0316 µM
[14] = second compound 0.03 µM, first compound 0.1 µM
[15] = second compound 0.03 µM, first compound 0.316 µM
[16] = second compound 0.03 µM, first compound 1 µM
[17] = second compound 0.03 µM, first compound 3.16 µM
[18] = second compound 0.03 µM, first compound 10 µM
[19] = second compound 0.0949 µM, first compound 0.0316 µM
[20] = second compound 0.0949 µM, first compound 0.1 µM
[21] = second compound 0.0949 µM, first compound 0.316 µM
[22] = second compound 0.0949 µM, first compound 1 µM
[23] = second compound 0.0949 µM, first compound 3.16 µM
[24] = second compound 0.0949 µM, first compound 10 µM
[25] = second compound 0.3 µM, first compound 0.0316 µM
[26] = second compound 0.3 µM, first compound 0.1 µM
[27] = second compound 0.3 µM, first compound 0.316 µM
[28] = second compound 0.3 µM, first compound 1 µM
[29] = second compound 0.3 µM, first compound 3.16 µM
[30] = second compound 0.3 µM, first compound 10 µM
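Note: spheroids exposed to compounds for 7 days before viability read.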

Row | Compound | pIC50 (second compound 0.003 µM) | pIC50 (second compound 0.00949 µM) | pIC50 (second compound 0.03 µM) | pIC50 (second compound 0.0949 µM) | pIC50 (second compound 0.3 µM) | viability, T/C [1] [%] | viability, T/C [2] [%] | viability, T/C [3] [%] | viability, T/C [4] [%] | viability, T/C [5] [%] | viability, T/C [6] [%] | viability, T/C [7] [%] | viability, T/C [8] [%] | viability, T/C [9] [%] | viability, T/C [10] [%] | viability, T/C [11] [%] | viability, T/C [12] [%] | viability, T/C [13] [%] | viability, T/C [14] [%] | viability, T/C [15] [%] | further results
1 | CC(C)n1c(=O)n(C)c2cnc3cc(F)c(-c4ccc(OCCCN5CCCCC5)nc4)cc3c21 + CC[C@@]1(O)C(=O)OCc2c1cc1n(c2=O)Cc2cc3c(CN(C)C)c(O)ccc3nc2-1 | < 5.00 | < 5.00 | < 5.00 | 5.47 | > 7.50 | 84.2 | 85.9 | 80.6 | 82.4 | 62 | 60.6 | 81.9 | 76.4 | 77.6 | 77 | 72.7 | 58.9 | 75 | 73.5 | 71 | viability, T/C [16]: 72.1%; viability, T/C [17]: 66.5%; viability, T/C [18]: 54.5%; viability, T/C [19]: 49.7%; viability, T/C [20]: 51.4%; viability, T/C [21]: 51.7%; viability, T/C [22]: 55.3%; viability, T/C [23]: 50.3%; viability, T/C [24]: 36.8%; viability, T/C [25]: 12.3%; viability, T/C [26]: 12.5%; viability, T/C [27]: 13.1%; viability, T/C [28]: 13.6%; viability, T/C [29]: 12.1%; viability, T/C [30]: 11.6%
2 | CC1COCCN1c1cc(-c2ccnn2C)c2ccnc(-c3ccn[nH]3)c2n1 (stereo not given) + CC[C@@]1(O)C(=O)OCc2c1cc1n(c2=O)Cc2cc3c(CN(C)C)c(O)ccc3nc2-1 | 6.50 | 6.85 | > 7.50 | > 7.50 | > 7.50 | 85.3 | 66.5 | 50.2 | 39 | 33.7 | 30.8 | 68.9 | 53.5 | 40.9 | 38.1 | 31.6 | 29.2 | 42 | 35.3 | 35.5 | viability, T/C [16]: 35.1%; viability, T/C [17]: 29.8%; viability, T/C [18]: 28.4%; viability, T/C [19]: 21.6%; viability, T/C [20]: 20%; viability, T/C [21]: 20.5%; viability, T/C [22]: 26.5%; viability, T/C [23]: 27.1%; viability, T/C [24]: 27%; viability, T/C [25]: 4.51%; viability, T/C [26]: 5.08%; viability, T/C [27]: 6.11%; viability, T/C [28]: 10.5%; viability, T/C [29]: 16.3%; viability, T/C [30]: 15.6%
3 | COc1cc(C)[nH]c(=O)c1CN1CCc2c(Cl)cc(C(OC)C3COC3)c(Cl)c2C1=O (stereo not given) + CC[C@@]1(O)C(=O)OCc2c1cc1n(c2=O)Cc2cc3c(CN(C)C)c(O)ccc3nc2-1 | < 5.00 | < 5.00 | < 5.00 | > 7.50 | > 7.50 | 93.5 | 103 | 98.2 | 101 | 101 | 94.9 | 90 | 92.1 | 85.8 | 87.1 | 91.5 | 86.3 | 64.9 | 65.1 | 64.3 | viability, T/C [16]: 65.3%; viability, T/C [17]: 67.9%; viability, T/C [18]: 65.4%; viability, T/C [19]: 45.3%; viability, T/C [20]: 48.7%; viability, T/C [21]: 49.9%; viability, T/C [22]: 49.2%; viability, T/C [23]: 47.9%; viability, T/C [24]: 47.1%; viability, T/C [25]: 13.2%; viability, T/C [26]: 9.94%; viability, T/C [27]: 12.4%; viability, T/C [28]: 12%; viability, T/C [29]: 10.7%; viability, T/C [30]: 11.1%
4 | COc1ccc([C@@H](O)c2cc(-c3ncnc4cc(N5CCOCC5)ccc34)c(F)cc2Cl)nn1 + CC[C@@]1(O)C(=O)OCc2c1cc1n(c2=O)Cc2cc3c(CN(C)C)c(O)ccc3nc2-1 | 5.71 | 5.81 | 6.11 | > 7.50 | > 7.50 | 99.8 | 99.8 | 83.4 | 63.7 | 40.5 | 31 | 85 | 86.9 | 75.3 | 57.8 | 37.8 | 31.2 | 70.9 | 64 | 62.9 | viability, T/C [16]: 46.6%; viability, T/C [17]: 33.7%; viability, T/C [18]: 29.5%; viability, T/C [19]: 48.6%; viability, T/C [20]: 47.6%; viability, T/C [21]: 50.5%; viability, T/C [22]: 41.8%; viability, T/C [23]: 30.8%; viability, T/C [24]: 25.5%; viability, T/C [25]: 13.7%; viability, T/C [26]: 11.9%; viability, T/C [27]: 11.6%; viability, T/C [28]: 13.2%; viability, T/C [29]: 17.4%; viability, T/C [30]: 18.5%
5 | [2H]c1nc(C)nc([2H])c1-c1cc(NC[C@@H](C)c2cccc3c(C(=O)NC)ccnc23)ncn1 + CC[C@@]1(O)C(=O)OCc2c1cc1n(c2=O)Cc2cc3c(CN(C)C)c(O)ccc3nc2-1 | < 5.00 | < 5.00 | < 5.00 | 5.24 | > 7.50 | 101 | 104 | 101 | 104 | 102 | 101 | 94.9 | 101 | 95.7 | 89.8 | 93.7 | 93.1 | 78.7 | 75.7 | 72.4 | viability, T/C [16]: 74.5%; viability, T/C [17]: 78.3%; viability, T/C [18]: 79%; viability, T/C [19]: 54.6%; viability, T/C [20]: 56%; viability, T/C [21]: 55.6%; viability, T/C [22]: 52.6%; viability, T/C [23]: 50.7%; viability, T/C [24]: 49%; viability, T/C [25]: 13.8%; viability, T/C [26]: 13.9%; viability, T/C [27]: 11.5%; viability, T/C [28]: 9.66%; viability, T/C [29]: 12.9%; viability, T/C [30]: 8.88%
